Measurements from patent US6596873B1, “2-and 2,5-substituted phenylketoenols” (Bayer Aktiengesellschaft, priority 1996, dated 2003).

Legend:
Assay type in all cases: in vivo
[1] = system: fruit tree spider mite (Panonychus ulmi); assay: Panonychus test; conditions: active compound concentration of 0.004%, after 7 days; plum trees sprayed
Description: Panonychus Test [table] To prepare a suitable preparation of active compound, 1 part by weight of active compound is mixed with the stated amount of solvent and the stated amount of emulsifier, and the concentrate is diluted with water to the desired concentration. Plum trees (Prunus domestica) approximately 30 cm in height which are severely infested by all stages of the fruit tree spider mite (Panonychus ulmi) are sprayed with an active compound preparation of the desired concentration. After the specified period of time, the destruction in % is determined. 100% means that all the spider mites have been killed; 0% means that none of the spider mites have been killed.

[2] = system: larvae of the green rice leaf hopper (Nephotettix cincticeps); assay: Nephotettix test; conditions: active compound concentration of 0.1%, after 6 days; rice seedlings dipped
Description: Nephotettix Test [table] To produce a suitable preparation of active compound, 1 part by weight of active compound is mixed with the stated amount of solvent and the stated amount of emulsifier, and the concentrate is diluted with water to the desired concentration. Rice seedlings (Oryzae sativa) are treated by being dipped into the preparation of the active compound of the desired concentration and are infested with larvae of the green rice leaf hopper (Nephotettix cincticeps) while the seedlings are still moist. After the specified period of time, the destruction in % is determined. 100% means that all the larvae have been killed; 0% means that none of the larvae have been killed.

[3] = system: caterpillars of the owlet moth (Spodoptera frugiperda); assay: Spodoptera test; conditions: active compound concentration of 0.1%, after 7 days; cabbage leaves dipped
Description: To produce a suitable preparation of active compound, 1 part by weight of active compound is mixed with the stated amount of solvent and the stated amount of emulsifier, an d the concentrate is diluted with water to the d esired concentration.
Cabbage leaves (Brassica oleracea) are treated by being dipped into the preparation of the active compound of the desired concentration and are infested with caterpillars of the owlet moth (Spodoptera frugiperda) as long, as the leaves are still moist.
After the specified period of time, the destruction in % is determined. 100% means that all the caterpillars have been killed; 0% means that none of the caterpiliars have been killed.

[4] = system: mustard beetle larvae (Phaedon cochleariae); assay: Phaedon larvae test; conditions: active compound concentration of 0.1%, after 7 days; cabbage leaves dipped
Description: Phaedon Larvae Test [table] To produce a suitable preparation of active compound, 1 part by weight of active compound is mixed with the stated amount of solvent and the stated amount of emulsifier, and the concentrate is diluted with water to the desired concentration. Cabbage leaves (Brassica oleracea) are treated by being dipped into the preparation of the active compound of the desired concentration and are infested with mustard beetle larvae (Phaedon cochleariae) while the leaves are still moist. After the specified period of time, the destruction in % is determined. 100% means that all the beetle larvae have been killed; 0% means that none of the beetle larvae have been killed.

[5] = system: caterpillars of the diamond-back moth (Plutella maculipennis); assay: Plutella test; conditions: active compound concentration of 0.1%, after 7 days; cabbage leaves dipped
Description: Plutella Test [table] To produce a suitable preparation of active compound, 1 part by weight of active compound is mixed with the stated amount of solvent and the stated amount of emulsifier, and the concentrate is diluted with water to the desired concentration. Cabbage leaves (Brassica oleracea) are treated by being dipped into the preparation of active compound of the desired concentration and are infested with caterpillars of the diamond-back moth (Plutella maculipennis) while the leaves are still moist. After the specified period of time, the destruction in % is determined. 100% means that all the caterpillars have been killed, 0% means that none of the caterpillars have been killed.

Row | Compound | efficacy (destruction in %) [1] [%] | destruction in % [2] [%] | destruction in % [3] [%] | destruction in % [4] [%] | destruction in % [5] [%]
1 | CC(C)(C)C(=O)OC1=C(c2ccccc2Cl)C(=O)OC12CCCCC2 [Example I-2-b-1] | 100 |  |  |  | 
2 | Cc1ccccc1C1=C(O)C2(CCC(C)CC2)NC1=O (centres unmarked) [Example I-1-a-1] |  | 100 | 85 | 100 | 
3 | Cc1ccccc1-c1c(O)c(C)c(-c2ccccn2)oc1=O [Example I-4-a-1] |  | 100 | 85 | 100 | 100
